Data set [1] is described as follows: Antioxidant activity assessed as DPPH radical scavenging activity measured every minute over 45 mins by spectrophotometry. It is filed as physicochemical. A general note: The DPPH test is a chemical assay of radical scavenging.
The nature of data set [2]: Antioxidant activity assessed as ABTS radical scavenging activity by spectrophotometry. It is filed as physicochemical.
Data set [3] has as its system SH-SY5Y. Description: Cytotoxicity against human SH-SY5Y cells at 1 and 10 uM after 24 hrs by MTT assay. It is filed as cell-based.
Data set [4] has as its system SH-SY5Y. Description: Neuroprotective activity in human SH-SY5Y cells assessed as inhibition of 6-OH-DA-induced cytotoxicity at 1 uM compound incubated for 1 hr followed by 24 hrs incubation with 100 uM 6-OH-DA by MTT assay. Type of data set: functional, cell-based. On the technique in general: Formazan colour is commonly taken as a measure of viable cells.
Data set [5] concerns SH-SY5Y. Description: Neuroprotective activity in human SH-SY5Y cells assessed as inhibition of 6-OH-DA-induced cytotoxicity at 10 uM compound incubated for 1 hr followed by 24 hrs incubation with 100 uM 6-OH-DA by MTT assay. It is filed as functional, cell-based.
Data set [6] in a line: Antioxidant activity assessed as galvinoxyl radical scavenging activity measured over 30 mins by spectrophotometry. Type of data set: physicochemical.
Data set [7] is described as follows: Iron chelation activity of compound assessed as [Fe(ferrozine)3]2+ complex formation by spectrophotometry. It is filed as physicochemical.

In general, IC50 refers to the midpoint of a concentration-inhibition curve.

Activity calls are given as the source filed them. No cut-off for these calls is given here.

Consider `COc1ccc(/C=C/C=C/C(=O)O)cc1OC`, for which the IC50 was more than 75 µM in data set [1] and more than 50 µM in data set [2]. Also, the Activity entry in the data set on SH-SY5Y [3] is “Non-toxic”. The inhibition result in the data set with SH-SY5Y [4] and in the data set on SH-SY5Y [5] was “inactive” throughout.

As to `COc1cc(/C=C/C=C/C(=O)O)ccc1O`, the IC50 in data set [1] came out at 42.5 µM; in data set [2], 19.7 µM; in data set [6] it was 4.8 µM. In addition, the Activity result in the data set on SH-SY5Y [3] is listed as “Non-toxic”. For the same compound, in the data set with SH-SY5Y [5], the inhibition entry is “Active”.

For the compound `Cc1c(C)c2c(c(C)c1O)CCC(C)(C(=O)O)O2` (racemic) [TROLOX], the results for the IC50 in data set [1], in data set [2] and in data set [6] were 30.8 µM, 2.8 µM and 3.4 µM, respectively.

Consider `O=C(O)/C=C/c1ccc(O)c(O)c1` [CAFFEIC ACID], for which the IC50 in data set [1] stood at 21.7 µM; in data set [2] it was 17.5 µM; in data set [6] it was 27 µM. For the same compound, in data set [7], the outcome was Active.

For `O=C(O)/C=C/C=C/c1ccc(O)c(O)c1` [DEMETHYLENATED PIPERIC ACID], the figures for the IC50 in data set [1], in data set [2] and in data set [6] were 18.2 µM, 11.1 µM and 2.5 µM, respectively. The Activity entry is “Active” in data set [7] and “Non-toxic” in the data set on SH-SY5Y [3]. Besides, the inhibition entry in the data set on SH-SY5Y [4] and in the data set with SH-SY5Y [5] was “Active” in each case.

Consider `COc1cc(/C=C/C(=O)O)ccc1O` [FERULATE], for which the IC50 was determined as 49.3 µM in data set [1], 23.9 µM in data set [2] and 26.5 µM in data set [6].
